What all share (conditions): Hit No
For test [1], the target named is T1, Endonuclease 8-like 2 (Homo sapiens) (UniProt Q969S2).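 Further: fluorescence at 594 nm reports NEIL2 cutting and release of a quenched double-stranded DNA oligo substrate, reduced signal read as inhibition.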
T1 sequence (whole entry): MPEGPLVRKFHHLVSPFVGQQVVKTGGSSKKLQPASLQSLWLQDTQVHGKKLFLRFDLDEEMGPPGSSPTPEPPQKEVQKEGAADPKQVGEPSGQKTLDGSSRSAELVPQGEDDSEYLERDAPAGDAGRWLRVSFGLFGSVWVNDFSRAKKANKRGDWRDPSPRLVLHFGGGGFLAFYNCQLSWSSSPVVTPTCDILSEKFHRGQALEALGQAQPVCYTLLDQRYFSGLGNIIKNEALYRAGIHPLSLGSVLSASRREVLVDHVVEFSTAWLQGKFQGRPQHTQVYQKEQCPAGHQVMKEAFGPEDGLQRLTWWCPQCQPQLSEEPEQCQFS
Description: Inhibition of NEIL2 by quantifying inhibition of NEIL2-mediated cleavage and dissociation of quenched duplex DNA oligonucleotides, measured as fluorescence at 594 nm.

Test [2] has as its target Methyl-CpG-binding domain protein 4 (Homo sapiens) (UniProt O95243).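 Further: MBD4 activity read as fluorescence at 594 nm from cleavage and release of a quenched duplex DNA oligonucleotide, with APE1 coupled to incise the strand and raise turnover.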
Description: Inhibition of MBD4 by quantifying inhibition of MBD4-mediated cleavage and dissociation of quenched duplex DNA oligonucleotides, measured as fluorescence at 594 nm. To generate a functional strand incision and increase turn-over this assay is coupled to APE1.
The target in test [3] is T2, Single-strand selective monofunctional uracil DNA glycosylase (Homo sapiens) (UniProt Q53HV7).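 Further: enzymatic SMUG1 assay coupled with APE1, reading fluorescence at 594 nm released when a quenched double-stranded DNA oligonucleotide substrate is cleaved and separated.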
T2 sequence (whole entry): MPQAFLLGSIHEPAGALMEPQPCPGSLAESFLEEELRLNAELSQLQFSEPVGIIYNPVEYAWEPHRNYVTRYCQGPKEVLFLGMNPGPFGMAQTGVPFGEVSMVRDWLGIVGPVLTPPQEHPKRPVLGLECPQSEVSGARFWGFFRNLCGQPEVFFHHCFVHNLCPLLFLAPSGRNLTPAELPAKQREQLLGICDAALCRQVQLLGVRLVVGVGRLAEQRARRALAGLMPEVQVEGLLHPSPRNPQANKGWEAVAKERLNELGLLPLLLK
Description: Inhibition of SMUG1 by quantifying inhibition of SMUG1-mediated cleavage and dissociation of quenched duplex DNA oligonucleotides, measured as fluorescence at 594 nm. To generate a functional strand incision and increase turn-over this assay is coupled to APE1.

Test [4] addresses N-glycosylase/DNA lyase (Homo sapiens) (UniProt O15527).
Description: Inhibition of OGG1 by quantifying inhibition of OGG1-mediated cleavage and dissociation of quenched duplex DNA oligonucleotides, measured as fluorescence at 594 nm. To generate a functional strand incision and increase turn-over this assay is coupled to APE1.
Test [5] deals with Endonuclease 8-like 1 (Homo sapiens) (UniProt Q96FI4).
Chain of Endonuclease 8-like 1 (Homo sapiens) (Q96FI4 whole entry): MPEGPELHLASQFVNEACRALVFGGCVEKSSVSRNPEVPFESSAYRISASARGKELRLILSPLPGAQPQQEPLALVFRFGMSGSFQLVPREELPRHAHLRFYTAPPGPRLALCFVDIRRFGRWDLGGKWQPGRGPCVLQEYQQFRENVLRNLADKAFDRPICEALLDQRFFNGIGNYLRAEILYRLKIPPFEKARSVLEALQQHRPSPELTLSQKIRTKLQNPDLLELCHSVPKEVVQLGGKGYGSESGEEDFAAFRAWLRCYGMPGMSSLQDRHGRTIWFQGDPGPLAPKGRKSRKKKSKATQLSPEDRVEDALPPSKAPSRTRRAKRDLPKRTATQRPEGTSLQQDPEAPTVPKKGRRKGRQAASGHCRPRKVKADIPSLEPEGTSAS
Description: Inhibition of NEIL1 by quantifying inhibition of NEIL1-mediated cleavage and dissociation of quenched duplex DNA oligonucleotides, measured as fluorescence at 594 nm.
In test [6] the target is Uracil-DNA glycosylase (Homo sapiens) (UniProt P13051).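 Further: UNG excision on a quenched double-stranded DNA oligo probe, with APE1 added for strand incision and turnover, read as fluorescence at 594 nm as strands separate.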
Chain of Uracil-DNA glycosylase (Homo sapiens) (P13051 whole entry): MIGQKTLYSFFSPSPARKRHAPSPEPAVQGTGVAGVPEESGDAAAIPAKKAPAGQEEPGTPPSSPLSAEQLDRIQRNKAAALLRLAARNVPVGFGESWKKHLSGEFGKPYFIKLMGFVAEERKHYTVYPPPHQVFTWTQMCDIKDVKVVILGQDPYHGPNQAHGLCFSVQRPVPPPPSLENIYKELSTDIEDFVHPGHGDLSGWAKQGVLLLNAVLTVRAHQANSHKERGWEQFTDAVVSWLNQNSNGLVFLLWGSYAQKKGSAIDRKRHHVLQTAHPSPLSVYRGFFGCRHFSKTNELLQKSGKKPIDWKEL
Description: Inhibition of UNG by quantifying inhibition of UNG-mediated cleavage and dissociation of quenched duplex DNA oligonucleotides, measured as fluorescence at 594 nm. To generate a functional strand incision and increase turn-over this assay is coupled to APE1.
Test [7] deals with T3, Endonuclease III-like protein 1 (Homo sapiens) (UniProt P78549).
T3 sequence (whole entry): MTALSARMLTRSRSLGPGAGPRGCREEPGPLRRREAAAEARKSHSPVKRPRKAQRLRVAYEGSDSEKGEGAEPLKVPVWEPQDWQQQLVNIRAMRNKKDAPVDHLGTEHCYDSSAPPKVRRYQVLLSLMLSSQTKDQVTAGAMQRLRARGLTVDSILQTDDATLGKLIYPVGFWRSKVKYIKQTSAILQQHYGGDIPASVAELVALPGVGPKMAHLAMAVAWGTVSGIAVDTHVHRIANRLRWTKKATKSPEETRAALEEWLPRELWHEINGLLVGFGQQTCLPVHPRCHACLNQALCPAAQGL
Description: Inhibition of NTHL1 by quantifying inhibition of NTHL1-mediated cleavage and dissociation of quenched duplex DNA oligonucleotides, measured as fluorescence at 594 nm.

Test [8] concerns the target G/T mismatch-specific thymine DNA glycosylase (Homo sapiens) (UniProt Q13569).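 Further: human TDG cleavage of quenched duplex DNA oligonucleotides coupled to APE1, strand release read as fluorescence at 594 nm, inhibition of TDG activity.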
Description: Inhibition of TDG by quantifying inhibition of TDG-mediated cleavage and dissociation of quenched duplex DNA oligonucleotides, measured as fluorescence at 594 nm. To generate a functional strand incision and increase turn-over this assay is coupled to APE1.
For test [9], the target named is T4, Adenine DNA glycosylase (Homo sapiens) (UniProt Q9UIF7).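 Further: human MUTYH activity read as 594 nm fluorescence from cleavage and release of a quenched DNA duplex, coupled with APE1 for strand incision, lower signal meaning inhibition.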
T4 sequence (whole entry): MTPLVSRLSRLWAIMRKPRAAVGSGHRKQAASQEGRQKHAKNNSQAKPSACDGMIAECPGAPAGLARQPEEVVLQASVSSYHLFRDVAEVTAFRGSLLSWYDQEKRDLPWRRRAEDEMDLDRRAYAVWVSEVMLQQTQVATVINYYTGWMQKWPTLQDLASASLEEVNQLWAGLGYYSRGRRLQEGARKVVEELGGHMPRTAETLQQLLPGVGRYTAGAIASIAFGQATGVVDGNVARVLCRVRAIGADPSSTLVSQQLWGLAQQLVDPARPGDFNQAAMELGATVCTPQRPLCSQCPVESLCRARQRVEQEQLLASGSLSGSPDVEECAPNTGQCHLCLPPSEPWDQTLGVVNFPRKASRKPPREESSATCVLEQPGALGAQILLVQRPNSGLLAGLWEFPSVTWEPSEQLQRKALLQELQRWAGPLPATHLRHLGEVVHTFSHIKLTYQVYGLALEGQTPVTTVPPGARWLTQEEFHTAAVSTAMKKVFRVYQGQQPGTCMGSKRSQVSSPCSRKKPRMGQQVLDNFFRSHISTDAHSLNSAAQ
Description: Inhibition of MUTYH by quantifying inhibition of MUTYH-mediated cleavage and dissociation of quenched duplex DNA oligonucleotides, measured as fluorescence at 594 nm. To generate a functional strand incision and increase turn-over this assay is coupled to APE1.

Chain of G/T mismatch-specific thymine DNA glycosylase (Homo sapiens) (Q13569 whole entry): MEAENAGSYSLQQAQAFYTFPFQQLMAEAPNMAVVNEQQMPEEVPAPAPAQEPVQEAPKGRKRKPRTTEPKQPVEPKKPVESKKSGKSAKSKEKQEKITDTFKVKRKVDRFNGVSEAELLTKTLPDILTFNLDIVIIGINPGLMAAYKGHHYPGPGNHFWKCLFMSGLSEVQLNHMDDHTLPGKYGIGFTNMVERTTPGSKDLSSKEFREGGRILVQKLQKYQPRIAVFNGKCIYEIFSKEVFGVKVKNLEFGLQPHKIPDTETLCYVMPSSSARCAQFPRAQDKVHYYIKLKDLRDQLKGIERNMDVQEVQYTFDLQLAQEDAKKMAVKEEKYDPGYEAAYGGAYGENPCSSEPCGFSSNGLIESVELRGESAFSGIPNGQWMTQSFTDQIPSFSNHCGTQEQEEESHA
Chain of Methyl-CpG-binding domain protein 4 (Homo sapiens) (O95243 whole entry, the tested form may be a part): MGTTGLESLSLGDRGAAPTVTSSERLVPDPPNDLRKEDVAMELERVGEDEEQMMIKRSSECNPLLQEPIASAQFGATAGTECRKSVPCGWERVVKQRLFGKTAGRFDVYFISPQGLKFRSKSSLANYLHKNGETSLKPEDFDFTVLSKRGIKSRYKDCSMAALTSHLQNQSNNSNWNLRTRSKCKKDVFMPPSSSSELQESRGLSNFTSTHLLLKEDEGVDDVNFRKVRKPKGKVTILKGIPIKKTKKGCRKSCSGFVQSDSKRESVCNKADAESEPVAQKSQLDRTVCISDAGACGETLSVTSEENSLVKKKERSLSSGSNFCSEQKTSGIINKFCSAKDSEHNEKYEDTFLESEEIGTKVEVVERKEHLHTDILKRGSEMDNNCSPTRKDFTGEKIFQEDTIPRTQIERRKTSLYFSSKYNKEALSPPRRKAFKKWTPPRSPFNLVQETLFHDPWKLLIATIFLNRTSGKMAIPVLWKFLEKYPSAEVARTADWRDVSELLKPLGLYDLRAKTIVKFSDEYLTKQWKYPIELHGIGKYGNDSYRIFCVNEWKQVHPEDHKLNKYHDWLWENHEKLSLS
Chain of N-glycosylase/DNA lyase (Homo sapiens) (O15527 whole entry): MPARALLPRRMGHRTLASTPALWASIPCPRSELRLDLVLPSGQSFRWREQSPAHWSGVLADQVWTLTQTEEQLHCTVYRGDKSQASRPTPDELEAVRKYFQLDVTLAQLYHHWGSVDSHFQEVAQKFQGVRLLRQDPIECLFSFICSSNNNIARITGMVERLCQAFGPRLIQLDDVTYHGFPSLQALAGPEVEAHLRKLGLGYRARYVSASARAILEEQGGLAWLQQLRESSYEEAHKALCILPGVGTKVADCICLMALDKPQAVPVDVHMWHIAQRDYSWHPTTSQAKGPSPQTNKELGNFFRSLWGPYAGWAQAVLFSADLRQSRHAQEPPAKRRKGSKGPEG

For the molecule `Cc1cc(Nc2nccc(C)n2)cc(-c2cnc([C@@]3(O)CC[C@H](C(=O)O)C(C)(C)C3)s2)c1`, the inhibition (as a rule, the change of the read-out against control, counted positive when it falls) in [1] (Compound Concentration 1.0 uM) is -5.61%; in [2] (Compound Concentration 1.0 uM), 25.6%; in [3] (Compound Concentration 1.0 uM), 13.6%; in [4] (Compound Concentration 1.0 uM), 9.85%; in test [5] (Compound Concentration 1.0 uM) it was -7.58%; in test [6] (Compound Concentration 1.0 uM), 2.21%. For the same molecule, the inhibition in test [7] (Compound Concentration 1.0 uM) was -4.56%; in test [8] (Compound Concentration 1.0 uM), 40.8%; in test [9] (Compound Concentration 1.0 uM), 3.53%.
Take `COCCCS(=O)(=O)c1cc(C)c(-c2ccc(F)c3c2CC[C@H]3Oc2ccc3c(c2)OC[C@H]3CC(=O)O)c(C)c1`: the inhibition is 6.65% in [1] (Compound Concentration 10.0 uM); 67.8% in [2] (Compound Concentration 10.0 uM); 6.73% in test [3] (Compound Concentration 10.0 uM); 31% in [4] (Compound Concentration 10.0 uM); -3.62% in [5] (Compound Concentration 10.0 uM); -1.09% in [6] (Compound Concentration 10.0 uM). Further, the inhibition in test [7] (Compound Concentration 10.0 uM) was -5.89%; in test [8] (Compound Concentration 10.0 uM), 59.1%; in test [9] (Compound Concentration 10.0 uM) it was -1.52%.
Consider `O=C1c2ccc(Nc3ccc(F)cc3F)cc2CCc2ccc(OC[C@H](O)CO)cc21`, for which the inhibition in test [1] (Compound Concentration 10.0 uM) was 4.92%; in [2] (Compound Concentration 10.0 uM), 32.4%; in test [3] (Compound Concentration 10.0 uM), 11.5%; in [4] (Compound Concentration 10.0 uM), -9.94%; in test [5] (Compound Concentration 10.0 uM), -0.672%; in test [6] (Compound Concentration 10.0 uM), 8.79%. Also, the inhibition in test [7] (Compound Concentration 10.0 uM) is 0.775%; in test [8] (Compound Concentration 10.0 uM), 39.4%; in [9] (Compound Concentration 10.0 uM), -4.85%.
Regarding `C[C@]1(O)C[C@@H](c2nc(-c3ccc4ccc(-c5ccccc5)nc4c3)c3c(N)nccn32)C1`, the inhibition was 12.6% in [1] (Compound Concentration 10.0 uM); 2.7% in test [2] (Compound Concentration 10.0 uM); 18.4% in [3] (Compound Concentration 10.0 uM); -7.95% in test [4] (Compound Concentration 10.0 uM); 4.89% in test [5] (Compound Concentration 10.0 uM); 7.32% in test [6] (Compound Concentration 10.0 uM). Also, the figures for the inhibition in test [7] (Compound Concentration 10.0 uM), in test [8] (Compound Concentration 10.0 uM) and in [9] (Compound Concentration 10.0 uM) were 10.6%, 57.9% and 25.7%, respectively.
On to `C[C@@H]1C[C@H](C)CN(c2ncc(Cl)c(Nc3ccc4c(c3)cc(OC(C)(C)C(=O)O)c(=O)n4C)n2)C1`, for which the inhibition in [1] (Compound Concentration 10.0 uM) was 8.19%; in [2] (Compound Concentration 10.0 uM) it was 73.2%; in test [3] (Compound Concentration 10.0 uM), 17.6%; in test [4] (Compound Concentration 10.0 uM), 19.3%; in test [5] (Compound Concentration 10.0 uM), -5.89%; in test [6] (Compound Concentration 10.0 uM) it was 7.75%. Also, the inhibition is -6.88% in [7] (Compound Concentration 10.0 uM), 69.6% in [8] (Compound Concentration 10.0 uM) and 18.2% in test [9] (Compound Concentration 10.0 uM).
In the case of `C=C1/C(=C\C=C2/CCC[C@]3(C)[C@@H]([C@H](C)CCCC(C)(C)O)CC[C@@H]23)C[C@@H](O)C[C@@H]1O`, the inhibition in test [1] (Compound Concentration 10.0 uM) is -1.25%; in test [2] (Compound Concentration 10.0 uM) it was 57%; in [3] (Compound Concentration 10.0 uM) it was 0.349%; in test [4] (Compound Concentration 10.0 uM), 10.5%; in [5] (Compound Concentration 10.0 uM), -6.8%; in test [6] (Compound Concentration 10.0 uM), -0.617%. Also, the inhibition in [7] (Compound Concentration 10.0 uM) is -8.52%; in test [8] (Compound Concentration 10.0 uM), 75.3%; in [9] (Compound Concentration 10.0 uM), -4.04%.
In the case of `C[C@H](NC(=O)c1c(C(F)F)nn(C)c1Oc1cccc(C(F)(F)F)c1)c1ccc(C(=O)O)cc1`, the inhibition in [1] (Compound Concentration 10.0 uM) is 11.8%; in test [2] (Compound Concentration 10.0 uM) it was -2.06%; in test [3] (Compound Concentration 10.0 uM), 2.15%; in [4] (Compound Concentration 10.0 uM) it was -5.88%; in [5] (Compound Concentration 10.0 uM) it was -3.02%; in [6] (Compound Concentration 10.0 uM), -7.93%. In addition, the inhibition is 16.6% in [7] (Compound Concentration 10.0 uM), 11.8% in [8] (Compound Concentration 10.0 uM) and 15.2% in test [9] (Compound Concentration 10.0 uM).
Consider `CNC(=O)c1ccc(Nc2ncc(C(F)(F)F)c(NCc3nccnc3N(C)S(C)(=O)=O)n2)cc1`, for which the inhibition is -4.88% in [1] (Compound Concentration 1.0 uM); -7.12% in test [1] (Compound Concentration 10.0 uM); 13.6% in test [2] (Compound Concentration 1.0 uM); 16.6% in test [2] (Compound Concentration 10.0 uM); 10.4% in [3] (Compound Concentration 1.0 uM); 23.4% in [3] (Compound Concentration 10.0 uM). Moreover, the inhibition in test [4] (Compound Concentration 1.0 uM) was -7.84%; in [4] (Compound Concentration 10.0 uM), 4.66%; in test [5] (Compound Concentration 1.0 uM), 3.44%; in test [5] (Compound Concentration 10.0 uM), 2.28%; in test [6] (Compound Concentration 1.0 uM), -2.6%; in test [6] (Compound Concentration 10.0 uM), 3.52%. Further, the inhibition in test [7] (Compound Concentration 10.0 uM) was -7.86%; in test [8] (Compound Concentration 1.0 uM) it was 43.6%; in test [8] (Compound Concentration 10.0 uM) it was 100%; in [9] (Compound Concentration 10.0 uM), 9.35%.

The values above are taken from ChEMBL document CHEMBL5665443, “Enzyme Inhibitor Single Concentration assay results for EUbOPEN Chemogenomics Library” (2024).
